Test results published in patent US6737383B1, “Herbicidal oxadiazolidines” (priority 1999, dated 2004).

Experiments:
velvetleaf = test: Test B pre/postemergence velvetleaf; type: in vivo, Abutilon theophrasti
Procedure, shortened: (§1)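 Test chemicals in a non-phytotoxic solvent mixture with surfactant were sprayed preemergence onto planted seeds and postemergence onto plants 2 to 18 cm tall (1- to 4-leaf stage). After twelve to sixteen days in a greenhouse, injury was visually rated against untreated controls from 0 (no effect) to 10 (complete control).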

surinam grass = test: Test B pre/postemergence surinam grass; type: in vivo, Brachiaria decumbens
Procedure, shortened: as §1

bedstraw = test: Test B pre/postemergence bedstraw; type: in vivo, Galium aparine
Procedure, shortened: as §1

wheat = test: Test B pre/postemergence wheat; type: in vivo, Triticum aestivum
Procedure, shortened: as §1

giant foxtail = test: Test B pre/postemergence giant foxtail; type: in vivo, Setaria faberii
Procedure, shortened: as §1

soybean = test: Test B pre/postemergence soybean; type: in vivo, Glycine max
Procedure, shortened: as §1

blackgrass = test: Test B pre/postemergence blackgrass; type: in vivo, Alopecurus myosuroides
Procedure, shortened: as §1

rape = test: Test B pre/postemergence rape; type: in vivo, Brassica napus
Procedure, shortened: as §1

morningglory = test: Test B pre/postemergence morningglory; type: in vivo, Ipomoea hederacea
Procedure, shortened: as §1

corn = test: Test B pre/postemergence corn; type: in vivo, Zea mays
Procedure, shortened: as §1

crabgrass = test: Test B pre/postemergence crabgrass; type: in vivo, Digitaria sanguinalis
Procedure, shortened: as §1

wild oat = test: Test B pre/postemergence wild oat; type: in vivo, Avena fatua
Procedure, shortened: as §1

cocklebur = test: Test B pre/postemergence cocklebur; type: in vivo, Xanthium strumarium
Procedure, shortened: as §1

purple nutsedge = test: Test B pre/postemergence purple nutsedge; type: in vivo, Cyperus rotundus
Procedure, shortened: as §1

pigweed = test: Test B pre/postemergence pigweed; type: in vivo, Amaranthus retroflexus
Procedure, shortened: as §1

sugar beet = test: Test B pre/postemergence sugar beet; type: in vivo, Beta vulgaris
Procedure, shortened: as §1

[1] = Postemergence, Rate 62 g/ha, scale 0 to 10, 0 is no effect, 10 is complete control
[2] = Postemergence, Rate 125 g/ha, scale of 0 to 10 where 0 is no effect and 10 is complete control
[3] = Preemergence, Rate 62 g/ha, scale of 0 to 10 where 0 is no effect and 10 is complete control
[4] = Preemergence, Rate 125 g/ha, scale of 0 to 10 where 0 is no effect and 10 is complete control
[5] = Preemergence, Rate 250 g/ha, scale 0 to 10 (0 no effect, 10 complete control)
[6] = Preemergence, Rate 500 g/ha, scale of 0 to 10 where 0 is no effect and 10 is complete control
[7] = Rate 500 g/ha, Postemergence, scale 0 to 10, 0 is no effect, 10 is complete control
[8] = Postemergence, Rate 250 g/ha, scale of 0 to 10, 0 is no effect, 10 is complete control

SMILES: CC(C)N(C(=O)n1oc(=O)n(Cc2nnc(Cl)s2)c1=O)c1ccccc1 [Compound 654]
- Plant response rating, Velvetleaf (velvetleaf; [1]): 0
- Velvetleaf plant response rating (velvetleaf; [2]): 0
- Velvetleaf plant response rating (velvetleaf; [3]): 0
- Velvetleaf plant response rating (velvetleaf; [4]): 0
- Plant response rating, Velvetleaf (velvetleaf; [5]): 0
- Plant response rating, Velvetleaf (velvetleaf; [6]): 0
- Velvetleaf plant response rating (velvetleaf; [7]): 0
- Plant response rating, B. signalgrass (surinam grass; [1]): 0
- Plant response rating, B. signalgrass (surinam grass; [2]): 0
- B. signalgrass plant response rating (surinam grass; [8]): 0
- B. signalgrass plant response rating (surinam grass; [3]): 0
- B. signalgrass plant response rating (surinam grass; [4]): 0
- Plant response rating, B. signalgrass (surinam grass; [5]): 0
- Plant response rating, B. signalgrass (surinam grass; [6]): 7
- B. signalgrass plant response rating (surinam grass; [7]): 0
- Bedstraw plant response rating (bedstraw; [8]): 0
- Bedstraw plant response rating (bedstraw; [3]): 0
- Bedstraw plant response rating (bedstraw; [4]): 0
- Plant response rating, Bedstraw (bedstraw; [5]): 0
- Plant response rating, Bedstraw (bedstraw; [6]): 0
- Bedstraw plant response rating (bedstraw; [7]): 0
- Plant response rating, Wheat (wheat; [1]): 0
- Wheat plant response rating (wheat; [2]): 0
- Wheat plant response rating (wheat; [3]): 0
- Wheat plant response rating (wheat; [4]): 0
- Plant response rating, Wheat (wheat; [5]): 0
- Plant response rating, Wheat (wheat; [6]): 0
- Wheat plant response rating (wheat; [7]): 0
- Plant response rating, Giant foxtail (giant foxtail; [1]): 0
- Giant foxtail plant response rating (giant foxtail; [2]): 2
- Giant foxtail plant response rating (giant foxtail; [8]): 5
- Giant foxtail plant response rating (giant foxtail; [3]): 0
- Giant foxtail plant response rating (giant foxtail; [4]): 6
- Plant response rating, Giant foxtail (giant foxtail; [5]): 9
- Plant response rating, Giant foxtail (giant foxtail; [6]): 9
- Giant foxtail plant response rating (giant foxtail; [7]): 7
- Plant response rating, Soybean (soybean; [1]): 0
- Soybean plant response rating (soybean; [2]): 0
- Soybean plant response rating (soybean; [3]): 0
- Soybean plant response rating (soybean; [4]): 0
- Plant response rating, Soybean (soybean; [5]): 0
- Plant response rating, Soybean (soybean; [6]): 0
- Soybean plant response rating (soybean; [7]): 0
- Plant response rating, Blackgrass (blackgrass; [1]): 0
- Blackgrass plant response rating (blackgrass; [2]): 0
- Blackgrass plant response rating (blackgrass; [8]): 0
- Blackgrass plant response rating (blackgrass; [3]): 0
- Blackgrass plant response rating (blackgrass; [4]): 0
- Plant response rating, Blackgrass (blackgrass; [5]): 2
- Plant response rating, Blackgrass (blackgrass; [6]): 7
- Blackgrass plant response rating (blackgrass; [7]): 0
- Plant response rating, Rape (rape; [1]): 0
- Rape plant response rating (rape; [2]): 0
- Rape plant response rating (rape; [3]): 0
- Rape plant response rating (rape; [4]): 0
- Plant response rating, Rape (rape; [5]): 0
- Plant response rating, Rape (rape; [6]): 0
- Rape plant response rating (rape; [7]): 0
- Plant response rating, Morningglory (morningglory; [1]): 3
- Morningglory plant response rating (morningglory; [2]): 4
- Morningglory plant response rating (morningglory; [8]): 10
- Morningglory plant response rating (morningglory; [3]): 0
- Morningglory plant response rating (morningglory; [4]): 0
- Plant response rating, Morningglory (morningglory; [5]): 0
- Plant response rating, Morningglory (morningglory; [6]): 0
- Morningglory plant response rating (morningglory; [7]): 10
- Plant response rating, Corn (corn; [1]): 0
- Corn plant response rating (corn; [2]): 0
- Corn plant response rating (corn; [8]): 0
- Corn plant response rating (corn; [3]): 0
- Corn plant response rating (corn; [4]): 0
- Plant response rating, Corn (corn; [5]): 0
- Plant response rating, Corn (corn; [6]): 0
- Corn plant response rating (corn; [7]): 0
- Plant response rating, Crabgrass (crabgrass; [1]): 0
- Crabgrass plant response rating (crabgrass; [2]): 0
- Crabgrass plant response rating (crabgrass; [8]): 2
- Crabgrass plant response rating (crabgrass; [3]): 0
- Crabgrass plant response rating (crabgrass; [4]): 3
- Plant response rating, Crabgrass (crabgrass; [5]): 7
- Plant response rating, Crabgrass (crabgrass; [6]): 9
- Crabgrass plant response rating (crabgrass; [7]): 7
- Plant response rating, Wild oats (wild oat; [1]): 0
- Wild oats plant response rating (wild oat; [2]): 0
- Wild oats plant response rating (wild oat; [3]): 0
- Wild oats plant response rating (wild oat; [4]): 0
- Plant response rating, Wild oats (wild oat; [5]): 0
- Plant response rating, Wild oats (wild oat; [6]): 2
- Wild oats plant response rating (wild oat; [7]): 0
- Plant response rating, Cocklebur (cocklebur; [1]): 0
- Cocklebur plant response rating (cocklebur; [2]): 0
- Cocklebur plant response rating (cocklebur; [8]): 0
- Cocklebur plant response rating (cocklebur; [3]): 0
- Cocklebur plant response rating (cocklebur; [4]): 0
- Plant response rating, Cocklebur (cocklebur; [5]): 0
- Plant response rating, Cocklebur (cocklebur; [6]): 0
- Cocklebur plant response rating (cocklebur; [7]): 0
- Plant response rating, Nutsedge (purple nutsedge; [1]): 0
- Nutsedge plant response rating (purple nutsedge; [2]): 0
- Nutsedge plant response rating (purple nutsedge; [3]): 0
- Plant response rating, Nutsedge (purple nutsedge; [5]): 0
- Plant response rating, Nutsedge (purple nutsedge; [6]): 0
- Plant response rating, Redroot pigweed (pigweed; [1]): 0
- Redroot pigweed plant response rating (pigweed; [2]): 0
- Redroot pigweed plant response rating (pigweed; [3]): 0
- Redroot pigweed plant response rating (pigweed; [4]): 0
- Plant response rating, Redroot pigweed (pigweed; [5]): 3
- Plant response rating, Redroot pigweed (pigweed; [6]): 5
- Redroot pigweed plant response rating (pigweed; [7]): 0
- Plant response rating, Sugarbeets (sugar beet; [1]): 0
- Sugarbeets plant response rating (sugar beet; [2]): 0
- Sugarbeets plant response rating (sugar beet; [3]): 0
- Sugarbeets plant response rating (sugar beet; [4]): 0
- Plant response rating, Sugarbeets (sugar beet; [5]): 0
- Plant response rating, Sugarbeets (sugar beet; [6]): 0
- Sugarbeets plant response rating (sugar beet; [7]): 0

SMILES: CC(C)N(C(=O)n1oc(=O)n(CCF)c1=O)c1ccccc1 [Compound 669]
- Velvetleaf plant response rating (velvetleaf; [3]): 0
- Velvetleaf plant response rating (velvetleaf; [4]): 0
- Plant response rating, Velvetleaf (velvetleaf; [5]): 0
- Plant response rating, Velvetleaf (velvetleaf; [6]): 0
- B. signalgrass plant response rating (surinam grass; [3]): 8
- B. signalgrass plant response rating (surinam grass; [4]): 8
- Plant response rating, B. signalgrass (surinam grass; [5]): 10
- Plant response rating, B. signalgrass (surinam grass; [6]): 10
- Bedstraw plant response rating (bedstraw; [3]): 0
- Bedstraw plant response rating (bedstraw; [4]): 7
- Plant response rating, Bedstraw (bedstraw; [5]): 9
- Plant response rating, Bedstraw (bedstraw; [6]): 9
- Wheat plant response rating (wheat; [3]): 6
- Wheat plant response rating (wheat; [4]): 5
- Plant response rating, Wheat (wheat; [5]): 8
- Plant response rating, Wheat (wheat; [6]): 8
- Giant foxtail plant response rating (giant foxtail; [3]): 9
- Giant foxtail plant response rating (giant foxtail; [4]): 9
- Plant response rating, Giant foxtail (giant foxtail; [5]): 10
- Plant response rating, Giant foxtail (giant foxtail; [6]): 10
- Soybean plant response rating (soybean; [3]): 0
- Soybean plant response rating (soybean; [4]): 2
- Plant response rating, Soybean (soybean; [5]): 3
- Plant response rating, Soybean (soybean; [6]): 6
- Blackgrass plant response rating (blackgrass; [3]): 9
- Blackgrass plant response rating (blackgrass; [4]): 10
- Plant response rating, Blackgrass (blackgrass; [5]): 10
- Plant response rating, Blackgrass (blackgrass; [6]): 10
- Rape plant response rating (rape; [3]): 2
- Rape plant response rating (rape; [4]): 4
- Plant response rating, Rape (rape; [5]): 8
- Plant response rating, Rape (rape; [6]): 9
- Morningglory plant response rating (morningglory; [3]): 0
- Morningglory plant response rating (morningglory; [4]): 0
- Plant response rating, Morningglory (morningglory; [5]): 0
- Plant response rating, Morningglory (morningglory; [6]): 0
- Corn plant response rating (corn; [3]): 2
- Corn plant response rating (corn; [4]): 9
- Plant response rating, Corn (corn; [5]): 9
- Plant response rating, Corn (corn; [6]): 9
- Crabgrass plant response rating (crabgrass; [3]): 9
- Crabgrass plant response rating (crabgrass; [4]): 9
- Plant response rating, Crabgrass (crabgrass; [5]): 9
- Plant response rating, Crabgrass (crabgrass; [6]): 10
- Wild oats plant response rating (wild oat; [3]): 10
- Wild oats plant response rating (wild oat; [4]): 10
- Plant response rating, Wild oats (wild oat; [5]): 10
- Plant response rating, Wild oats (wild oat; [6]): 10
- Cocklebur plant response rating (cocklebur; [3]): 0
- Cocklebur plant response rating (cocklebur; [4]): 0
- Plant response rating, Cocklebur (cocklebur; [5]): 0
- Plant response rating, Cocklebur (cocklebur; [6]): 0
- Nutsedge plant response rating (purple nutsedge; [3]): 0
- Plant response rating, Nutsedge (purple nutsedge; [6]): 6
- Redroot pigweed plant response rating (pigweed; [3]): 6
- Redroot pigweed plant response rating (pigweed; [4]): 10
- Plant response rating, Redroot pigweed (pigweed; [5]): 10
- Plant response rating, Redroot pigweed (pigweed; [6]): 10
- Sugarbeets plant response rating (sugar beet; [3]): 6
- Sugarbeets plant response rating (sugar beet; [4]): 8
- Plant response rating, Sugarbeets (sugar beet; [5]): 8
- Plant response rating, Sugarbeets (sugar beet; [6]): 9
